Assay [1] concerns midbrain dopaminergic neurons from embryonic mouse. The experiment in a line: HN-induced intracellular humanin expression, western blot, primary neurons. Type of assay: cell-based. The conditions noted are these: HN treatment 24 h (1 μM in Fig 2A), basal humanin undetectable. On the procedure: Primary mesencephalic cell cultures were prepared using gestational day 13.5 embryos from C57BL/6J mice, as previously described. The mesencephalon was dissected from the embryos and dissociated in a medium containing 0.25% trypsin-EDTA and 0.05% DNase in PBS for 15 min at 37 °C. Tissue samples were mechanically dissociated by gentle pipetting using Pasteur pipettes. After centrifugation at 400 x g for 5 min, the cells were plated in Neurobasal-A medium (Thermo Fisher Scientific, Waltham, MA, USA) supplemented with 2% B27 supplement (Thermo Fisher Scientific), 1× Glutamax (Thermo Fisher Scientific), 5% fetal bovine serum (FBS), 0.36% D-glucose, and 1% Penicillin/Streptomycin (P/S) in poly-L-ornithine/laminin (Sigma-Aldrich)-coated plates. On day 4 in vitro (DIV), the plating medium was replaced, and the neurons were used on DIV 8 for subsequent experiments.
For HN treatment of cells, HN stock solution was first incubated at 37 ℃ with mild stirring for 0.5 h. The solution was then added to the culture medium to achieve a desirable final concentration as described above.
(§1) Mouse brain tissue samples and cells were homogenized in radioimmunoprecipitation assay (RIPA) buffer (Cell Signaling, Danvers, MA, USA) in the presence of a protease and phosphatase inhibitor cocktail (Thermo Fisher Scientific). […] The results were analyzed using the ImageJ densitometry system. […]
In general terms: Immunoblotting shows a protein as a band on a membrane.

Assay [2] has as its system differentiated PC12 cells exposed to MPP^+. Briefly: Intracellular humanin in MPP+-exposed differentiated PC12 cells, western blot. Type of assay: cell-based, rat. The conditions noted are these: HN treatment, MPP+ exposure. On the procedure:
For neuronal differentiation of PC12 cells, the cells were grown in DMEM containing 1.5% horse serum, 1.5% FBS, 1% P/S, and 100 ng/mL nerve growth factor (NGF, Thermo Fisher Scientific) every 2 days. PC12 cells were differentiated for 7 days and used for subsequent experiments.
Mouse brain tissue samples and cells were homogenized in radioimmunoprecipitation assay (RIPA) buffer (Cell Signaling, Danvers, MA, USA) in the presence of a protease and phosphatase inhibitor cocktail (Thermo Fisher Scientific). The samples were sonicated on ice, and the supernatant was collected after centrifugation at 4°C at 10,000 g for 5 min. The protein samples were loaded and separated using Tris-glycine SDS-PAGE. To detect the HN peptide, the proteins were separated into three layers of tricine SDS-PAGE, as previously described. The separated proteins were transferred to nitrocellulose membranes (GenDEPOT, Barker, TX, USA). The membranes were blocked for 0.5 h, followed by incubation with appropriate primary antibodies overnight at 4°C. The primary antibodies used were as follows: anti-tyrosine hydroxylase (Cat # P40101, Pel-Freez Biologicals), anti-HN (Cat # RA19000, Neuromics), anti-β-actin (Cat # GTX109639, GeneTex, Irvine, CA, USA), and anti-GAPDH (Cat # AM4300, Thermo Fisher Scientific). […] The results were analyzed using the ImageJ densitometry system. […]

The next assay concerns SH-SY5Y cells. Briefly: Real-time qPCR of mitochondrial rRNA and humanin transcripts. Type of assay: cell-based, human. The protocol:
For real-time qPCR, total RNA was extracted using TRIzol reagent (Thermo Fisher Scientific). cDNA was synthesized using a cDNA synthesis kit (Bioneer Corporation), according to the manufacturer's protocol. The mRNA levels were analyzed in a LightCycler 96 (Roche, Basel, Switzerland) using SYBR Green I master mix and SensiFAST™ SYBR® No-ROX Kit (Bioline, Paris, France). B2M (beta-2-microglobulin) gene expression was used to normalize gene expression data. The primer sequences used in this experiment are in Table S2.

A further assay has as its system JNK, p38 MAPK, AKT, ERK. The experiment in a line: Signaling kinase activation in striatum of MPTP mice, western blot. The class given is in vivo, mouse. The note with it: MPTP PD mice, intranasal HN 0.1 and 5 mg/kg. On the procedure:
A mouse model of PD was generated using the neurotoxin MPTP-HCl (Sigma-Aldrich, St. Louis, MO, USA), as previously described. Seven- to eight-week-old male C57BL/6J mice were injected with MPTP (20 mg/kg/day) for five consecutive days for the subacute delivery of MPTP. The mice in the control group received the same volume of phosphate buffer saline (PBS).
For intranasal HN treatment, the synthetic HN peptide was delivered according to a procedure reported by Capsoni et al. The synthetic HN peptide was diluted in ddH2O to a concentration of 0.1 and 5 mg/kg for mice (total volume of 40 μL) at 37 ℃ with mild stirring. The mice were held firmly in one hand in a supine position with their head at 90°. Synthetic HN was administered in the form of 5-μL drops over 20 min in alternating nostrils every 3 min. After administration, the heads of the mice were held in the same position to prevent loss of the applied solution from the nares.
Mouse brain tissue samples and cells were homogenized in radioimmunoprecipitation assay (RIPA) buffer (Cell Signaling, Danvers, MA, USA) in the presence of a protease and phosphatase inhibitor cocktail (Thermo Fisher Scientific). The samples were sonicated on ice, and the supernatant was collected after centrifugation at 4°C at 10,000 g for 5 min. […] The results were analyzed using the ImageJ densitometry system. […]

Another assay has as its system rat organotypic slices. Briefly: Ex vivo PD model, organotypic brain slices with 6-OHDA. The class given is cell-based. The note with it: then 6-OHDA 100 μM, 2 h. On the procedure:
Postnatal 5-7-day-old rat pups were used to prepare organotypic slices, as previously described, with minor modifications. The brain of anesthetized pups was aseptically removed. The brain hemispheres were separated and cut sagittally into 350-μm slices using a MacIlwain tissue chopper (MacIlwain, Mickle Laboratory, Cambridge, UK). The slices were transferred to ice-cold Gray's Balanced Salt solution containing CaCl2 (1.5 mM), NaCl (136 mM), KCl (5 mM), KH2PO4 (0.2 mM), MgCl2 (1 mM), MgSO4 (0.2 mM), NaHCO3 (0.2 mM), Na2PO4 (0.08 mM), and glucose (5.5 mM). […]
as §1
The organotypic slice cultures were exposed to 6-OHDA at the tissue surface on DIV 8 to avoid apoptosis due to nutrients and to induce proper maturation. […] Intracellular ATP was quantified using the CellTiter-Glo Luminescent Viability Kit (Promega Corporation, Madison, WI, USA), according to the manufacturer's protocol. Luminescence was measured using a SpectraMax L Microplate Reader (Molecular Devices).

Turning to “humanin (MAPRGFSCLLLLTSEIDLPVKRRA; Humanin; UniProt Q8IVG9 1-24, looked up) [HN, mitochondria-derived peptide encoded by the mitochondrial genome, synthesized by Fmoc-based SPPS at GL Biochem]”, the intracellular humanin expression entry in assay [1] is “induced its intracellular expression in a dose-dependent manner”. The intracellular humanin result in assay [2] is recorded as “upregulated intracellular humanin”. The “transcript levels of regions across mitochondrial rRNA and humanin” value with SH-SY5Y cells (up to 24 h after HN treatment, slightly declined over time) was “significantly upregulated up to 24 h”; in the assay on SH-SY5Y cells (within 3 h of HN treatment), “significant upregulation”. The “activation of JNK and p38 MAPK in striatum” value in the assay with JNK, p38 MAPK, AKT, ERK is “inhibited the activation of JNK and p38 MAPK”. Moreover, the “activation of AKT and ERK in brain tissue” value in the assay on JNK, p38 MAPK, AKT, ERK (dose-dependent) is “promoted the activation of AKT and ERK”. The “mitochondrial biogenesis markers PGC-1α and NRF1, western blot” value in the assay with rat organotypic slices (HN pre-treatment 1 μM, 24 h) is on record as “stimulated mitochondrial biogenesis”. The “ATP levels (CellTiter-Glo luminescence)” value in the assay with rat organotypic slices (HN pre-treatment 24 h, 0.1 or 1 μM) was “effectively inhibited significant depletion of ATP levels”.
